Measurements: patent publication US20080260714A1, “Fibrin Compositions Containing Strontium Compounds” (BAXTER INTERNATIONAL INC., priority 2007, published 2008)

Assays:
[1] = test system: SaOS-2 cell
Protocol: For the initial experiments, cells were seeded on the surface of clots.

[2] = test system: osteosarcoma cell line UMR-106; details: for PTH bioactivity: 24 h pre-incubation of UMR-106 cells with 20 mM salt prior to TGplPTH treatment, five experiments; for synergistic effect with PTH in generation of cAMP: UMR-106 osteoblast cells, 20 mM salt
Protocol: The present example describes in vitro studies on rat osteosarcoma cells to investigate if a combination of parathyroid hormone (PTH) and Strontium (used as SrCl2) on activation of bone formation factors like increased cAMP production in osteoblasts.
The osteosarcoma cell line UMR-106 (NewLab Bioquality AG, Erkrath, Germany) was used to perform the bioassay.
UMR-106 cells were seeded in growth medium at a density of 30000 cells/cm^2 and incubated at 37° C./8.0% CO2 After 24 hours, medium was exchanged with either fresh medium, medium containing 20 mM SrCl2 or medium containing 20 mM CaCl2. Cells were further incubated at 37° C./8.0% CO2 for 24 hours. Cells were harvested according to the following procedure:
Cells were washed twice with HBSS and detached from the surface using 6 ml trypsine/EDTA for 3 min at room temperature. Trypsin digestion was stopped with 12 ml growth medium. Following centrifugation (3 min, 1000 rpm, RT) cells were resuspended in 12 ml starvation medium and counted with a CASY cell counter. The rate of dead cells was below 10% in every experiment. Cells were resuspended to a final concentration of 1.6×10^6 cells/ml in starvation medium. 50 μl of cell suspension was transferred into each well of a 96-well plate and incubated for 30 min at 37° C., 8.0% CO2.
Samples were diluted in freshly prepared starvation medium containing 2 mM IBMX (SI medium). For preparation of SI-medium 30 μl of a 0.67M IBMX stock in DMSO was added to 10 ml of starvation medium.
All sample dilutions were prepared with this medium to inhibit phosphodiesterase activity in UMR-106 cells (Janik, P., 1980; Chasin M. and Harris, D. N., 1976). 50 μl of diluted samples (as indicated in results) were added to the cells after 30 min incubation at 37° C. For cAMP production cells were incubated for 1 h at 37° C., 8.0% CO2. Each sample concentration was added to cells at least in duplicates following cAMP analysis in duplicates.
Cell lysis and dilution of cAMP For extraction of cAMP 100 μl of cell suspension containing PTH was incubated with 25 μl (final dilution 1:5) lysis reagent solvent 1A that is part of the cAMP Biotrak EIA kit (GE Healthcare). For total lysis, cells were shaken for 15 min at 500 rpm at room temperature. […]
Data analysis. The optical density was determined in a plate reader (Synergy HT) by measuring the absorbance of the samples at 450 nm using the software KC4. […]
cAMP concentration of the samples. Taking into account the dilution factor (20×) the produced cAMP amounts were calculated using the parameters (slope and intercept) of the standard curve.
Preparation of Samples for Bioassay Analysis. […] For all samples and all dilutions, mean values of OD450, standard deviations, cAMP concentrations and coefficients of variations were calculated.

[3] = test system: human osteoblast-like cells (SaOS-2); test: Alamar Blue proliferation of cells grown on fibrin clots; format: cell-based; details: SaOS-2 on clots up to 7 days; Sr salt in thrombin dilution buffer; compared to normal clot with 20 mM CaCl2
Protocol: (§1) For in-vitro experiments, the clots were prepared by pipetting 150 μl of the fibrinogen solution to the wells of a 24 well plate. The plate was put on plate shaker to ensure an even distribution over the well bottom. 150 μl of the thrombin solution was then added to the well and the plate was put on a plate shaker to ensure homogeneous clots. A human osteoblast-like cell line (SaoS-2) was cultured on the clots for up to 7 days to see if any differences in cell proliferation/cell differentiation could be observed.

[4] = turbidimetric analysis of clots; format: physicochemical; details: strontium containing clots in comparison to calcium containing clots
Protocol: In addition to the cell studies observation, turbidmetric analysis was carried out to examine if the clot structure was altered as a result of the strontium (FIG. 4) The clot turbidity is directly proportional to average cross-sectional area of the fibres, therefore the more turbid the clot the greater the fiber diameter.

[5] = test system: human osteoblast-like cells (SaOS-2); test: alkaline phosphatase production of cells grown on fibrin clots; format: cell-based; details: SaOS-2 on clots containing strontium; production over 30 minutes; preliminary result
Protocol: as §1
These experiments are being repeated with a 14 day investigative period.

Compound | time at which cell death occurs ([1]; SaOS-2, 12.5 mM CaCl2 in medium) [h] | cell survival / proliferation (MTS assay) ([1]; SaOS-2 on tissue culture plastic, medium with 12.5 mM Sr or Ca) | PTH bioactivity [2] | synergistic effect with PTH in generation of cAMP [2] | proliferation (Alamar Blue) [3] | clot turbidity (kinetics and absorbance) [4] | alkaline phosphatase expression [5]
[Ca+2].[Cl-].[Cl-] [CaCl2, calcium chloride, reference compound] | ≤ 24 | Cell death | no change in PTH bioactivity | No such effect | – | – | –
[Cl-].[Cl-].[Sr+2] [SrCl2, Strontium Chloride] | – | – | twofold increased bioactivity | positive synergistic effect | significant increased proliferation | very little difference in the kinetics and absorbance | increase in alkaline phosphatase expression
CC(=O)[O-].CC(=O)[O-].[Sr+2] [Strontium Acetate] | – | – | – | – | – | – | appear not to be significant
